From US10168342B2, “Lipid probes and uses thereof” (THE SCRIPPS RESEARCH INSTITUTE, priority 2015, dated 2019)

Assays:
Assay in all cases: isoTOP-ABPP mapping of AEA-DA-modified peptides in Neuro2a cells
Format in all cases: cell-based
[1] = biological target: T1, AEA-DA-modified peptides in Neuro2a cells (Mus musculus, UniProt Q8R2Y8); conditions: AEA-DA-modified peptide PTRH2 Q8R2Y8 35-69, SEQ ID NO 93; probe 100 μM, 12 replicates
T1 construct: endogenous in cells; host or cells: Neuro2a

[2] = biological target: T2, AEA-DA-modified peptides in Neuro2a cells (Mus musculus, UniProt P62814); conditions: AEA-DA-modified peptide ATP6V1B2 P62814 68-82, SEQ ID NO 20; probe 100 μM, 12 replicates
T2 construct: endogenous in cells; host or cells: Neuro2a

[3] = biological target: T3, AEA-DA-modified peptides in Neuro2a cells (Mus musculus, UniProt Q9CQV8); conditions: AEA-DA-modified peptide YWHAB Q9CQV8 196-225, SEQ ID NO 120; probe 100 μM, 12 replicates
T3 construct: endogenous in cells; host or cells: Neuro2a

[4] = biological target: T4, AEA-DA-modified peptides in Neuro2a cells (Mus musculus, UniProt P35505); conditions: AEA-DA-modified peptide FAH P35505 238-254, SEQ ID NO 40; probe 100 μM, 12 replicates
T4 construct: endogenous in cells; host or cells: Neuro2a

[5] = biological target: T5, AEA-DA-modified peptides in Neuro2a cells (Mus musculus, UniProt P61750); conditions: probe 100 μM, 12 replicates
T5 construct: endogenous in cells; host or cells: Neuro2a

[6] = biological target: T6, AEA-DA-modified peptides in Neuro2a cells (Mus musculus, UniProt Q61335); conditions: AEA-DA-modified peptide BCAP31 Q61335 73-80, SEQ ID NO 21; probe 100 μM, 12 replicates
T6 construct: endogenous in cells; host or cells: Neuro2a

[7] = biological target: T7, AEA-DA-modified peptides in Neuro2a cells (Mus musculus, UniProt Q791V5); conditions: AEA-DA-modified peptide MTCH2 Q791V5 91-112, SEQ ID NO 62; probe 100 μM, 12 replicates
T7 construct: endogenous in cells; host or cells: Neuro2a

[8] = biological target: T8, AEA-DA-modified peptides in Neuro2a cells (Mus musculus, UniProt P84078); conditions: AEA-DA-modified peptide ARF1 P84078 39-60, SEQ ID NO 10; probe 100 μM, 12 replicates
T8 construct: endogenous in cells; host or cells: Neuro2a

[9] = biological target: T9, AEA-DA-modified peptides in Neuro2a cells (Mus musculus, UniProt Q8BVU5); conditions: AEA-DA-modified peptide NUDT9 Q8BVU5 230-242, SEQ ID NO 73; probe 100 μM, 12 replicates
T9 construct: endogenous in cells; host or cells: Neuro2a

[10] = biological target: T10, AEA-DA-modified peptides in Neuro2a cells (Mus musculus, UniProt Q8BH04); conditions: AEA-DA-modified peptide PCK2 Q8BH04 245-262, SEQ ID NO 79; probe 100 μM, 12 replicates
T10 construct: endogenous in cells; host or cells: Neuro2a

[11] = biological target: T11, AEA-DA-modified peptides in Neuro2a cells (Mus musculus, UniProt Q60864); conditions: AEA-DA-modified peptide STIP1 Q60864 506-514, SEQ ID NO 106; probe 100 μM, 12 replicates
T11 construct: endogenous in cells; host or cells: Neuro2a

[12] = biological target: T12, AEA-DA-modified peptides in Neuro2a cells (Mus musculus, UniProt P52825); conditions: AEA-DA-modified peptide CPT2 P52825 363-383, SEQ ID NO 26; probe 100 μM, 12 replicates
T12 construct: endogenous in cells; host or cells: Neuro2a
T12 sequence (P52825 26-658): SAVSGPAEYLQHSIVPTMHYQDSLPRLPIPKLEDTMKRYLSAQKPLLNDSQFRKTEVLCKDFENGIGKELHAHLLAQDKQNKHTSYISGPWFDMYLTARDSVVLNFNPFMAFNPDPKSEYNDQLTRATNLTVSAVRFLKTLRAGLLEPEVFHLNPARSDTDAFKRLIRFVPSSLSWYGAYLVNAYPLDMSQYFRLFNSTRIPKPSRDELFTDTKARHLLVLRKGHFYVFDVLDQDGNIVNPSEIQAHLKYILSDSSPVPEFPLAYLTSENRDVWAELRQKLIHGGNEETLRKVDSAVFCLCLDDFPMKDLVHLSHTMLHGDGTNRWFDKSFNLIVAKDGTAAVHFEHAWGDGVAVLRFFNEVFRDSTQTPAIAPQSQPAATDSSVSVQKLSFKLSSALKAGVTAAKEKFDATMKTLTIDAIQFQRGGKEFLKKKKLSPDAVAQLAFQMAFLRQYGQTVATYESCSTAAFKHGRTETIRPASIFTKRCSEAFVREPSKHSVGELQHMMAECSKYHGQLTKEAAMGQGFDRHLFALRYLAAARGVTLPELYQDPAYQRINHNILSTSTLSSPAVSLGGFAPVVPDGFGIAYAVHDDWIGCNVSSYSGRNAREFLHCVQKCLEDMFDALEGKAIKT

T5 sequence (P61750 whole entry): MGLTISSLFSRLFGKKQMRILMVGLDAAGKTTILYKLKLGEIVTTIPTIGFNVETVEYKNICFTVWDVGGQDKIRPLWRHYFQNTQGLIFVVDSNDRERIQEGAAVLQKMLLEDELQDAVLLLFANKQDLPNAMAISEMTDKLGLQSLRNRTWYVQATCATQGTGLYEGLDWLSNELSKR
T1 sequence (Q8R2Y8 whole entry): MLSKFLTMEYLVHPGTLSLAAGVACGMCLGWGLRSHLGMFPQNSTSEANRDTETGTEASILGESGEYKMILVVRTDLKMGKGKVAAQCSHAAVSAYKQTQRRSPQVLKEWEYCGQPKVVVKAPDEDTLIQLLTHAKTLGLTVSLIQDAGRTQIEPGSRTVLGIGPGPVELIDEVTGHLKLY
T3 sequence (Q9CQV8 whole entry): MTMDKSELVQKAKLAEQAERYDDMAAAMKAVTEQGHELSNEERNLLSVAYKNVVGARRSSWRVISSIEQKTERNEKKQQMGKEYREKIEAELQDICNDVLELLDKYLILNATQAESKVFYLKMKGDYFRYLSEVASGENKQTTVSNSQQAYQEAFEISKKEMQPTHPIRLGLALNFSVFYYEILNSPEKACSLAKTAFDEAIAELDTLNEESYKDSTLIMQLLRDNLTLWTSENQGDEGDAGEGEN
T6 sequence (Q61335 whole entry): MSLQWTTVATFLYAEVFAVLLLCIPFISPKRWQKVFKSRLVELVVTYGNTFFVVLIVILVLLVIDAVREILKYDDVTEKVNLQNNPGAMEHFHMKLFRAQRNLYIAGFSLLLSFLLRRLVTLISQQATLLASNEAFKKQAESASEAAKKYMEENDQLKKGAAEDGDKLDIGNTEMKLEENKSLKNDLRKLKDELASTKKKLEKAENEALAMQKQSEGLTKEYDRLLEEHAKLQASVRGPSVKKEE
T2 sequence (P62814 whole entry): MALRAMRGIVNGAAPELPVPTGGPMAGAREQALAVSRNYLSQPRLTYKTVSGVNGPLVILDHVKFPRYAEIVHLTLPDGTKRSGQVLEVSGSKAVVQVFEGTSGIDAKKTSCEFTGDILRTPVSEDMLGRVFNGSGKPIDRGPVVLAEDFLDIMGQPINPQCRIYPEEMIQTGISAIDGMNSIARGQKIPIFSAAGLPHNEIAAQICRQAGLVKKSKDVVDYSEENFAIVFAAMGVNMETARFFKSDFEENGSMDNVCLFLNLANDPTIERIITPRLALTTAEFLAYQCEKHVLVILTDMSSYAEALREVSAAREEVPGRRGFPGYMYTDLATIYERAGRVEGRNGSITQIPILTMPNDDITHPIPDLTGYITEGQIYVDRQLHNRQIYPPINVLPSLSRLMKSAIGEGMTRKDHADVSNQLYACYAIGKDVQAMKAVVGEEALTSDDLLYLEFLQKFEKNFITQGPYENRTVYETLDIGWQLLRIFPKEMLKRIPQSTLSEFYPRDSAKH
T8 sequence (P84078 whole entry): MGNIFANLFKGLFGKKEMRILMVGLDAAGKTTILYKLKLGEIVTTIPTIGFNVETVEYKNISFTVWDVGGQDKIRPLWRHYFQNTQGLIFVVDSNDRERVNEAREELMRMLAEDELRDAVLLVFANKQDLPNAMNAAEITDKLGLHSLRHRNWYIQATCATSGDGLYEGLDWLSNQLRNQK
T4 sequence (P35505 whole entry): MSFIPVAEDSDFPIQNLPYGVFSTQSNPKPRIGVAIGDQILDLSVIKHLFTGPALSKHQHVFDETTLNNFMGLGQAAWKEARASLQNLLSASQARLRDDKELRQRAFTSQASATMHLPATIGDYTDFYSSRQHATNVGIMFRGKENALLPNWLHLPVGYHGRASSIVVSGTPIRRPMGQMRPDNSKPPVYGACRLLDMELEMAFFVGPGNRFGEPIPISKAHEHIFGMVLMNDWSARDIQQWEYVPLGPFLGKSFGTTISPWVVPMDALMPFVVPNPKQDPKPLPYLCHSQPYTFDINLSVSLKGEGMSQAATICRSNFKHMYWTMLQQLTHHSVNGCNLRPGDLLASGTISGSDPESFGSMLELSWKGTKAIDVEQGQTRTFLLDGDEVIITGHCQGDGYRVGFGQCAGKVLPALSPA
T9 sequence (Q8BVU5 47-350): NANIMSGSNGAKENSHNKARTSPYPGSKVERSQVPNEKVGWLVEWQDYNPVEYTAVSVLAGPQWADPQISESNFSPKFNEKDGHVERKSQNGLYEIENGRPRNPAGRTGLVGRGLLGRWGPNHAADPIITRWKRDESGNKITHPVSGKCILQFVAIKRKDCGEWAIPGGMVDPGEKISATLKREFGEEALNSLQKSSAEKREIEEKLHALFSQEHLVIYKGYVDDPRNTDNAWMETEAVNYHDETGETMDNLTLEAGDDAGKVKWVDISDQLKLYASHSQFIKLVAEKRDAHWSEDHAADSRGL
T10 sequence (Q8BH04 33-640): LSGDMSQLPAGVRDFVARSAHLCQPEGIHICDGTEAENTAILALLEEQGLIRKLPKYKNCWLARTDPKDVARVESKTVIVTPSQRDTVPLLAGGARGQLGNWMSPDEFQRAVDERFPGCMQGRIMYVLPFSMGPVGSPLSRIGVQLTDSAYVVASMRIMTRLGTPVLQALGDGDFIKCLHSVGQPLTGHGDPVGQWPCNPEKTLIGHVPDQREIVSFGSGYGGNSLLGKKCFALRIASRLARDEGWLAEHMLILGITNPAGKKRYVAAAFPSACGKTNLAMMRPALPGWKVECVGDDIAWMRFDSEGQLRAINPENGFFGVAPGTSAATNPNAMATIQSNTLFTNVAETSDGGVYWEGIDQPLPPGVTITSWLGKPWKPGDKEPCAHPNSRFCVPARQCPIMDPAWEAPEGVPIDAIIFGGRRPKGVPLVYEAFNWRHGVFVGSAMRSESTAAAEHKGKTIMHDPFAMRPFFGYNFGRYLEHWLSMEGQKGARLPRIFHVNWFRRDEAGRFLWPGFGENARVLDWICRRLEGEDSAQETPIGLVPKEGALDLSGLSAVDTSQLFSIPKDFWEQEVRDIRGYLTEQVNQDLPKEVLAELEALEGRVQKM
T7 sequence (Q791V5 whole entry): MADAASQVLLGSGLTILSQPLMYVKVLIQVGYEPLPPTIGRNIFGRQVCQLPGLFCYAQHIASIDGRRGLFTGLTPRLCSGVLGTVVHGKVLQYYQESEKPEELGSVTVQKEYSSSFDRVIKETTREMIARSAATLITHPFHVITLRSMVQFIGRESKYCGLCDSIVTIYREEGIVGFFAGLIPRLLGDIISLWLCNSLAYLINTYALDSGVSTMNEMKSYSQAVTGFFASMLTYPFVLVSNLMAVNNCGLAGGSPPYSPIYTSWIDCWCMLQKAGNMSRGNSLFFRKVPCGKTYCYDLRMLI

C#CCCCC1(CC/C=C\C/C=C\C/C=C\CCCC(=O)NCCO)N=N1 [AEA-DA, (5Z,8Z,11Z)-N-(2-hydroxyethyl)-14-(3-(pent-4-yn-1-yl)-3H-diazirin-3-yl)tetradeca-5,8,11-trienamide]
Times observed [1]: 2
Times observed [2]: 3
Times observed [3]: 8
Times observed [4]: 8
Times observed ([5]; AEA-DA-modified peptide ARF4 P61750 39-60, SEQ ID NO 13): 9
Times observed ([5]; AEA-DA-modified peptide ARF4 P61750 110-128, SEQ ID NO 12): 2
Times observed [6]: 2
Times observed [7]: 2
Times observed [8]: 9
Times observed [9]: 7
Times observed [10]: 12
Times observed [11]: 3
Times observed [12]: 6
